Results: patent US12310941B2, “Agent for protection of blood brain spinal cord barrier” (National University Corporation Hokkaido University, priority 2020, dated 2025)

Assays:
[1] = tested on: Human brain vascular endothelial cells (hCMEC/D3); experiment: Cell viability of human brain vascular endothelial cells under hydrogen peroxide stress; assay type: cell-based; details: 450 μM hydrogen peroxide, 6 hours; PrestoBlue; stressed cells without test compound about 0.2; FIG. 17
Protocol: Human brain vascular endothelial cells (hCMEC/D3, Sigma) were seeded to 5,000 cells/cm^2 on a 96-well plate (Falcon cell culture 96-well multi-well plate, with flat bottom lid) coated with 0.1 mg/ml collagen type 1 (Sigma-Aldrich), and cultured at 37° C. for 24 hours with 5% CO2 using Endothelial Cell Growth Medium (PromoCell, Germany). Bismuth citrate, bismuth subnitrate, bismuth tartrate, or zinc sulfate dissolved in saline, and hydrogen peroxide at a final concentration of 450 μM were added to the medium and incubated for 6 hours to simultaneously stress the cells and treat them with test compounds. The cell viability after loading stress was measured using PrestoBlue (registered trademark) Cell Viability Reagent (Life Technologies).
The cell viability is illustrated in FIG. 17 when the cell viability of the control without hydrogen peroxide stress is 1 and the cell-free is 0. […] Note that the survival rate of the cells subjected to hydrogen peroxide stress and not added the test compound was about 0.2.

[2] = tested on: spinal cord crush injury rats; experiment: Histological evaluation in spinal cord crush injury model; assay type: in vivo, Lewis rats; details: 8 weeks after injury, vs vehicle; for reactive astrocyte area (GFAP positive area): FIG. 6
Protocol: Crush injuries were created in the fifth cervical cord (C5) of Lewis rats (female, 8 to 14 weeks old, n=14 to 18/group) under anesthesia by applying a pressure of 200 kdyn using an IH impactor. For seven consecutive days from the day of injury creation, 380 to 420 μL of the test compound dissolved in saline or DMSO, or vehicle was intraperitoneally administered. The daily doses were 20 mg/kg body weight of papaverine, 1 mg/kg body weight of mubritinib, and 1 mg/kg body weight of brexpiprazole. After the rats were kept for 8 weeks from injury creation, histological evaluation and sensory function evaluation for pathological conditions at the chronic stage of the spinal cord injury were performed. After perfusion and fixation of the rats in the same manner as in Example 3, the 2 cm long spinal cord centering the injury site was dissected. The dissected spinal cords were immersed in PBS containing 30% sucrose for overnight and then transected horizontally to prepare frozen sections having a thickness of 30 μm. After washing the sections with TBS, blocking was performed in a blocking buffer (TBS containing 5% normal horse serum and 0.25% Triton X-100) for 1 hour at room temperature. After washing with PBS, the sections were reacted with a primary antibody at 4° C. overnight. As the primary antibody, purified anti-Glial Fibrillary Acidic Protein (GFAP) Antibody (Biolegend) and Anti-NeuN Antibody, clone A60 (Millipore) were diluted with TBS containing 5% normal horse serum and 0.25% Triton X-100 at 1:1000 and at 1:500, respectively, and used. After washing with TBS, the sections were reacted with a secondary antibody at room temperature for 3 hours. As the secondary antibody, both Alexa Fluor 594 donkey anti-mouse IgG (Jackson ImmunoResearch) and Alexa Fluor 594 donkey anti-chicken IgG (Jackson ImmunoResearch) were diluted with TBS containing 3% normal horse serum and 0.25% Triton X-100 at 1:500, and used. After washing with TBS, the sections were observed using BZ-X710 (KEYENCE) to obtain fluorescent images. For the section of the central part of the spinal cord of the rat, the cavity area of the injured part, the area of the region immunostained with the GFAP antibody, and the number of cells immunostained with the NeuN antibody present on the lines 1.5 mm rostal and caudal from the center of the injury were measured. GFAP is a marker for reactive astrocytes and NeuN is a marker for neurons. Immediately after creating crush injuries in the fifth cervical cord (C5) of Lewis rats (female, 8 to 14 weeks old, n=8/group) under anesthesia in the same manner as in Example 4, 500 mg/kg of bismuth subnitrate dissolved in saline, or vehicle (saline) was intraperitoneally administered. After the rats were kept for 8 weeks from injury creation, histological evaluation and sensory function evaluation were performed for pathological conditions at the chronic stage of the spinal cord injury. In the same manner as in Example 4, for the section of the central part of the spinal cord of the rat, the reactive astrocyte area, the cavity area of the injured part, and the number of remaining neurons present on the lines 1.5 mm rostal and caudal from the center of the injury were measured.

[3] = tested on: spinal cord crush injury rats; experiment: Sensory function evaluation (pain stimulus response time) in spinal cord crush injury model; assay type: in vivo, Lewis rats; details: single i.p. dose 500 mg/kg immediately after C5 crush injury; vs vehicle; FIG. 13
Protocol: Crush injuries were created in the fifth cervical cord (C5) of Lewis rats (female, 8 to 14 weeks old, n=14 to 18/group) under anesthesia by applying a pressure of 200 kdyn using an IH impactor. For seven consecutive days from the day of injury creation, 380 to 420 μL of the test compound dissolved in saline or DMSO, or vehicle was intraperitoneally administered. The daily doses were 20 mg/kg body weight of papaverine, 1 mg/kg body weight of mubritinib, and 1 mg/kg body weight of brexpiprazole. After the rats were kept for 8 weeks from injury creation, histological evaluation and sensory function evaluation for pathological conditions at the chronic stage of the spinal cord injury were performed. […] Immediately after creating crush injuries in the fifth cervical cord (C5) of Lewis rats (female, 8 to 14 weeks old, n=8/group) under anesthesia in the same manner as in Example 4, 500 mg/kg of bismuth subnitrate dissolved in saline, or vehicle (saline) was intraperitoneally administered. After the rats were kept for 8 weeks from injury creation, histological evaluation and sensory function evaluation were performed for pathological conditions at the chronic stage of the spinal cord injury.

[4] = tested on: cerebral cortex injury mice; experiment: IgG leakage in cerebral cortex injury model; assay type: in vivo, C57BL/6 mice; details: i.p. day before and on day of injury; bismuth subnitrate 500, papaverine 20 mg/kg; vs vehicle; FIG. 16
Protocol: Protection of the BBSCB function in traumatic brain injury by papaverine, mubritinib, brexpiprazole, and bismuth subnitrate was evaluated by observing suppression of IgG leakage from the injured site using the following method. C57BL/6 mice (male, 8 to 13 weeks old, n=3 to 4/group) were intraperitoneally administered 200 μL of the test compound dissolved in saline or DMSO, or vehicle. The doses were 20 mg/kg body weight of papaverine, 1 mg/kg body weight of mubritinib, 1 mg/kg body weight of brexpiprazole, and 500 mg/kg body weight of bismuth subnitrate. On the next day after administration, injuries were created in the left cerebral hemisphere cortex of the mice under anesthesia by a wire-knife transection method. The mice were immobilized in a stereotaxic frame, and the left lateral 1 mm portion from the bregma of the cranial bone was opened with a microdrill. A wire-knife was inserted into the lateral 1.0 mm from the bregma and 0.5 mm deep in the left cerebral hemisphere, and the wire was extended caudally and pulled up to create the injury. […] For evaluation of the IgG-stained area, taken images were binarized into black and white using Photoshop CS3 (Adobe, CA, USA), and then quantified using Image J (Schneider et al., 2012). […] All quantitative evaluations were performed with the slides blinded. […]

[5] = tested on: spinal cord crush injury rats; experiment: Walking function analysis (DigiGait) in spinal cord crush injury model; assay type: in vivo, Lewis rats; details: single i.p. dose 500 mg/kg, 8 weeks after injury
Protocol: Immediately after creating crush injuries in the fifth cervical cord (C5) of Lewis rats (female, 8 to 14 weeks old, n=8/group) under anesthesia in the same manner as in Example 4, 500 mg/kg of bismuth subnitrate dissolved in saline, or vehicle (saline) was intraperitoneally administered. After the rats were kept for 8 weeks from injury creation, histological evaluation and sensory function evaluation were performed for pathological conditions at the chronic stage of the spinal cord injury.
The ground contacting area (the Paw Area) of each leg and the maximum possible walking speed were measured in rats before and 8 weeks after spinal cord injury creation using the DigiGait walking analysis system for small animals (Bioresearch Center Co., Ltd.) according to the manual. […] All rats before spinal cord injury creation were able to walk at a treadmill speed of 20 cm/sec. In the vehicle-administered group, the number of rats that were able to walk at a speed of 15 cm/sec or faster decreased to two individuals, whereas in the bismuth subnitrate-administered group, 6 individuals were able to walk at a speed of 15 cm/sec or faster (FIG. 15).

[6] = i.p. daily for 7 days from C5 crush injury, papaverine 20, mubritinib 1, brexpiprazole 1 mg/kg

O=C([O-])CC(O)(CC(=O)[O-])C(=O)[O-].O=C([O-])CC(O)(CC(=O)[O-])C(=O)[O-].[Bi+3].[K+].[K+].[K+] [Bismuth subcitrate, bismuth subcitrate]
cell protective effect on hCMEC/D3 (cell viability) compared with zinc sulfate [1]: significantly higher

O=c1ccc2ccc(OCCCCN3CCN(c4cccc5sccc45)CC3)cc2[nH]1 [brexpiprazole, 7-[4-[4-(1-benzothiophen-4-yl)piperazin-1-yl]butoxy]-1H-quinolin-2-one]
reactive astrocyte area (GFAP positive area) [2, 6]: significantly reduced

O=[N+]([O-])[O-].O=[N+]([O-])[O-].O=[N+]([O-])[O-].O=[N+]([O-])[O-].[Bi+3].[Bi+3].[Bi+3].[Bi+3].[Bi+3].[O-2].[OH-].[OH-].[OH-].[OH-].[OH-].[OH-].[OH-].[OH-].[OH-] [bismuth subnitrate]
response time of the forelimbs to pain stimulus [3]: significantly longer | cavity area of the injured part ([2]; single i.p. dose 500 mg/kg immediately after C5 crush injury, FIG. 11): significantly reduced | number of remaining neurons, rostral side and caudal side of the injured part ([2]; single i.p. dose 500 mg/kg immediately after C5 crush injury, FIG. 12): increased both on the rostral side and the caudal side | cell protective effect on hCMEC/D3 (cell viability) compared with zinc sulfate [1]: significantly higher | leakage of IgG from the injured site of the cerebral cortex [4]: significantly suppressed | number of rats able to walk at a speed of 15 cm/sec or faster ([5]; n=8/group, vehicle group two individuals, FIG. 15): 6 individuals | ground contacting area (the Paw Area) on one side ([5]; vs vehicle, FIG. 14): significantly increased

COc1ccc(Cc2nccc3cc(OC)c(OC)cc23)cc1OC [papaverine, 1-[(3,4-dimethoxyphenyl)methyl]-6,7-dimethoxyisoquinoline]
reactive astrocyte area (GFAP positive area) [2, 6]: significantly reduced | cavity area of the injured part ([2]; i.p. daily for 7 days from C5 crush injury, papaverine 20, mubritinib 1, brexpiprazole 1 mg/kg, FIG. 7): significantly reduced | number of remaining neurons (NeuN-positive cells) ([2]; i.p. daily for 7 days from C5 crush injury, papaverine 20, mubritinib 1, brexpiprazole 1 mg/kg, FIG. 8): significantly increased | leakage of IgG from the injured site of the cerebral cortex [4]: significantly suppressed

bismuth tartrate
cell protective effect on hCMEC/D3 (cell viability) compared with zinc sulfate [1]: significantly higher
